Laboratory results reported in PMC6315541, “Nile Tilapia Derived Antimicrobial Peptide TP4 Exerts Antineoplastic Activity Through Microtubule Disruption” (Marine Drugs, 2018).

What was measured:
[1] = tested on: Pure tubulins (microtubule polymerization); assay: In vitro tubulin polymerization assay; assay type: biochemical
Procedure: To test the models predicted by the molecular docking analysis, TP4 mutants were generated by substitution of Phe1, Ile16, and Arg23 with either Gly or Ala (mutant names and sequences are provided in Figure 5A), and the mutants were analyzed for their interaction with α-Tubulin. The sequence of TP4 is expected to form an α-helix, see Supplementary Figure S1A.
Figure 5 TP4 inhibits microtubule polymerization. (A) Sequences of the TP4 wild type (WT) and mutants. Letters shown in red indicate substituted amino acids. (B,C) Dynamic measurement of the microtubule polymerization. Pure tubulins were assembled in the presence of TP4 (WT), TP4 mutants (MT1-6). H2O, paclitaxel, and nocodazole served as vehicle, positive, and negative controls, respectively.
The Microtubule/Tubulin In Vivo Assay (Cytoskeleton, Inc., Denver, CO, USA) was performed using the “inhibitor condition” provided in the manufacturer’s instructions. Microtubule regrowth was assayed as described previously. Briefly, cells with or without 3 h, 10 μg mL^−1 TP4 treatment were incubated with nocodazole (20 μM) for 6 h at 37 °C. After washing with warm culture medium, cells were incubated for a further 0, 10, or 30 minutes. Fixed cells were stained with the α-Tubulin antibody and for F-actin. Confocal images were acquired on an FV3000 microscope (Olympus Corp., Tokyo, Japan).

A549 cells = assay: Cell viability (CellTiter-Glo ATP assay) in A549 cells; assay type: cell-based, human; conditions: 24 h; for relative ATP levels (cell viability): CellTiter-Glo ATP assay, luminescence, mean ± SD of three independent assays, n ≥ 5 wells per dose
Procedure: Figure 6 Loss of cancer-killing ability in TP4 mutants. (A) Cell viability in A549 cells was determined by the adenosine triphosphate (ATP) assay following treatment with varying doses of TP4 and TP4 mutants for 24 h. Multiple wells were analyzed for each assay. Results represent the mean ± SD. Statistical comparisons between groups were performed using two-way ANOVA: a, not significant; b, p < 0.05; d, p < 0.001. Statistical analyses are shown in Supplementary Table S1. (B) Cells were stained for TP4 (WT panel), FITC (MT-1 to MT-6 panels), α-Tubulin, and F-actin. Hoechst33342 was used for nuclei staining. Boxed regions are magnified in the furthest right panels. […] Bar: 20 μm.
The A549 cell line (Bioresource Collection and Research Center (BCRC) 60074) was purchased from the BCRC and cultured according to BCRC recommendations. For the cell viability and transfection assay, 4–5 × 10^3 cells were seeded into the wells of a 96-well plate and cultured overnight. Cells were then treated according to the indicated doses and times. Cell viability was quantified using the CellTiter-Glo® Luminescent Cell Viability Assay kit (ATP assay) (Madison, WI, USA) as previously described. The luminescent signal was measured using a photometer (SpectraMax® i3, Molecular Devices, Wals, Austria).
For the multi-well based assay, cells were plated at least in quadruplicate. Data were collected from independently repeated experiments (N ≥ 3) and were analyzed by Prism5 software (GraphPad Inc., La Jolla, CA, USA). Statistical significance was determined by a two-tailed Student’s t-test or one-way/two-way analysis of variance (ANOVA) with a Bonferroni post hoc test. Differences were considered statistically significant at p < 0.05. […]
Supplementary Table S1. Cellular toxicit y of TP 4 to A549 cells was evaluated b y cell viability. Results of statis tical tests on data in Figu re 6A are shown. Multiple wells were anal yzed for each ex periment (n ≥ 5 wells per do se). Results represent the mean ± SD from three independent assays. Statistical comparisons between mock versus TP4 treatment groups were performed using two -way ANOVA anal ysis with Bonferroni post-hoc test: a, not signi ficant; b, P < 0.05; c, P < 0.01; d, P < 0.001. […]
(A-G) Th e helical projection plot and s tructural model o f TP4 (A) and TP4 variants (MT-1 to MT-6, B-G ). The helical proj ecti on was produced b y an online helical wheel projection program (http://rzlab.ucr.edu/scripts/wheel/wheel.cgi). Amino acid residues are numbered and each amino acid is connected with lines to indicate its relative position along the helix. The hydrophobic residues are shown as diamonds ; h ydrophilic residues are circles. Residues with negative charge are shown as trian gles and positively charged residues are pentagons. Hydrophobicity is color coded. The

With “FIHHIIGGLFSAGKAIHRLIRRRRR [TP4, synthesized Nile tilapia-derived antimicrobial peptide, Tilapia piscidin 4]” the “effect on microtubule polymerization” value ([1]; 10 μg mL^−1 peptide, dynamic measurement, Figure 5B) was “sufficient to disrupt microtubule polymerization”, the “effect on microtubule polymerization” value ([1]; 20 μg mL^−1 peptide, compared to controls, Figure 5C) was “completely inhibited microtubule polymerization” and the “relative ATP levels (cell viability)” value (A549 cells; 3.35 µM) was 0.580±0.061. The “relative ATP levels (cell viability)” value (A549 cells; 5.03 µM) was 0.211±0.030, the “relative ATP levels (cell viability)” value (A549 cells; 6.71 µM, listed as WT) was 0.129±0.034 and the “relative ATP levels (cell viability)” value (A549 cells; 6.71 µM, listed as wild-type TP4, 6.71 µM) was 0.130 ± 0.036. For the same sequence, the “relative ATP levels (cell viability)” value (A549 cells; 20.12 µM, listed as WT) was 0.009±0.010, the “relative ATP levels (cell viability)” value (A549 cells; 20.12 µM, listed as wild-type TP4, 20.12 µM) was 0.010 ± 0.010 and the “cytotoxicity to A549 cells (in words)” value (A549 cells; doses 3.35-20.12 µM, ATP assay, Figure 6A) was “obvious dose-dependent cytotoxic effects”.
